Values quoted from earlier work in patent US20050186288A1, “Compositions and methods for the prophylaxis and treatment of aphthous ulcers and herpes simplex lesions” (Chiou Consulting Inc., priority 2002, published 2005).

System: herpes infection (wound or ulcer)
Conditions: salt alone

Row | Substance | effect in treating herpes infection (wound or ulcer)
1 | magnesium pentosan polysulfate | ineffective
2 | zinc pentosan polysulfate | ineffective
